# Reference: US7253158B2, “Sulfonamides” (Hoffmann-La Roche Inc., priority 2004, dated 2007)
# Molecular target: T1, γ-secretase (Homo sapiens, UniProt P49768)
# T1 construct: uses a HEK293 membrane fraction as a source of γ-secretase; endogenous in cells; host or cells: HEK293 (microsomal membrane fraction, solubilised in 0.25% CHAPSO)
# Assay: in vitro γ-secretase assay (HEK293 membrane fraction, recombinant APP substrate, Abeta ELISA)
# Assay type: biochemical
# Conditions: γ-secretase inhibition
# Excerpt: Description of γ-Secretase Assay
# The activity of test compounds can be evaluated in assays which measure the proteolytic cleavage of suitable substrates by γ-secretase activity. These can be cellular assays where e.g., a substrate of the γ-secretase is fused in its cytoplasmic domain to a transcription factor. Cells are transfected with this fusion gene and a reporter gene, e.g., firefly luciferase, which expression is enhanced by the transcription factor. Cleavage of the fused substrate by γ-secretase will lead to expression of the reporter gene which can be monitored in appropriate assays. The γ-secretase activity can also be determined in cell-free in vitro asays where e.g., a cell lysate containing the γ-secretase complex is incubated with a suitable APP-derived substrate which is cleaved to the Abeta peptides. The amount of produced peptides can be determined with specific ELISA assays. Cell lines of neuronal origin secrete Abeta peptides which can be measured with the specific ELISA assay. Treatment with compounds which inhibit γ-secretase leads to a reduction of secreted Abeta thus providing a measure of inhibition.
# The in vitro assay of γ-secretase activity uses a HEK293 membrane fraction as a source of γ-secretase and a recombinant APP substrate. Latter consist of the C-terminal 100 amino acids of human APP fused to a 6× Histidin tail for purification which is expressed in E. coli in a regulatable expression vector, e.g. pEt15. This recombinant protein corresponds to the truncated APP fragment which results after […] of the extracellular domain and which constitutes the γ-secretase substrate. […] Hek293 cells are mechanically disrupted and the microsomal fraction is isolated by differential centrifugation.
Compound,IC50 (table head prints none) [nM],IC50 [nM]
"COc1ccc(CN(C2CC(C(C)C)CCNC2=O)S(=O)(=O)c2ccc(Cl)cc2)cc1 (stereo not drawn) [Example 111, 4-Chloro-N-(5-isopropyl-2-oxo-azepan-3-yl)-N-(4-methoxy-benzyl)-benzenesulfonamide]",8,
"O=C(NC1CC1)c1ccc(CN(C2CC(C(F)(F)F)CCNC2=O)S(=O)(=O)c2ccc(Cl)cc2)cc1 (stereo not drawn) [Example 115, 4-{[(4-Chloro-benzenesulfonyl)-(2-oxo-5-trifluoromethyl-azepan-3-yl)-amino]-methyl}-N-cyclopropyl-benzamide]",30,
"COc1ccc(CN(C2CC(C(C)C)CCNC2=O)S(=O)(=O)c2ccc(Cl)cc2)c(F)c1 (stereo not drawn) [Example 116, 4-Chloro-N-(2-fluoro-4-methoxy-benzyl)-N-(5-isopropyl-2-oxo-azepan-3-yl)-benzenesulfonamide]",140,
"CC1(C)CCNC(=O)C(N(Cc2ccc(C(=O)O)cc2)S(=O)(=O)c2ccc(Cl)cc2)C1 (stereo not drawn) [Example 139, 4-{[(4-Chloro-benzenesulfonyl)-(5,5-dimethyl-2-oxo-azepan-3-yl)-amino]-methyl}-benzoic acid]",70,
"COc1ccc(CN([C@@H]2CCCCNC2=O)S(=O)(=O)c2ccc(C(F)(F)F)cc2)c(F)c1F [Example 166, N-(2,3-Difluoro-4-methoxy-benzyl)-N-((R)-2-oxo-azepan-3-yl)-4-trifluoromethyl-benzenesulfonamide]",230,
"Cc1nnc(-c2ccc(CN(C3CC(C(C)C)CCNC3=O)S(=O)(=O)c3ccc(Cl)cc3)cc2)o1 (stereo not drawn) [Example 180, 4-Chloro-N-(5-isopropyl-2-oxo-azepan-3-yl)-N-[4-(5-methyl-[1,3,4]oxadiazol-2-yl)-benzyl]-benzenesulfonamide]",140,
"Cc1noc(-c2ccc(CN(C3CC(C(C)C)CCNC3=O)S(=O)(=O)c3ccc(Cl)cc3)cc2)n1 (stereo not drawn) [Example 181, 4-Chloro-N-(5-isopropyl-2-oxo-azepan-3-yl)-N-[4-(3-methyl-[1,2,4]oxadiazol-5-yl)-benzyl]-benzenesulfonamide]",270,
"CC1(C)CCNC(=O)[C@H](N(Cc2ccc(C(=O)NC3CC3)cc2)S(=O)(=O)c2ccc(Cl)cc2)C1 [Example 183, 4-{[(4-Chloro-benzenesulfonyl)-((R)-5,5-dimethyl-2-oxo-azepan-3-yl)-amino]-methyl}-N-cyclopropyl-benzamide]",10,
"COC(=O)c1ccc(CN([C@@H]2CC(C)(C)CCNC2=O)S(=O)(=O)c2ccc(Cl)cc2)c(F)c1 [Example 185, 4-{[(4-Chloro-benzenesulfonyl)-((R)-5,5-dimethyl-2-oxo-azepan-3-yl)-amino]-methyl}-3-fluoro-benzoic acid methyl ester]",10,
"COC(=O)CCc1ccc(CN([C@@H]2CC(C)(C)CCNC2=O)S(=O)(=O)c2ccc(Cl)cc2)cc1 [Example 186, 3-(4-{[(4-Chloro-benzenesulfonyl)-((R)-5,5-dimethyl-2-oxo-azepan-3-yl)-amino]-methyl}-phenyl)-propionic acid methyl ester]",130,
"CC1(C)CCNC(=O)[C@H](N(Cc2ccc(CCC(=O)O)cc2)S(=O)(=O)c2ccc(Cl)cc2)C1 [Example 187, 3-(4-{[(4-Chloro-benzenesulfonyl)-((R)-5,5-dimethyl-2-oxo-azepan-3-yl)-amino]-methyl}-phenyl)-propionic acid]",10,
"CC1(C)CCNC(=O)[C@H](N(Cc2ccc(C(=O)O)cc2F)S(=O)(=O)c2ccc(Cl)cc2)C1 [Example 188, 4-{[(4-Chloro-benzenesulfonyl)-((R)-5,5-dimethyl-2-oxo-azepan-3-yl)-amino]-methyl}-3-fluoro-benzoic acid]",30,
"CN(C)NC(=O)c1ccc(CN([C@@H]2CC(C)(C)CCNC2=O)S(=O)(=O)c2ccc(Cl)cc2)c(F)c1 [Example 189, 4-Chloro-N-[4-(N′,N′-dimethyl-hydrazinocarbonyl)-2-fluoro-benzyl]-N-((R)-5,5-dimethyl-2-oxo-azepan-3-yl)-benzenesulfonamide]",20,
"CC1(C)CCNC(=O)[C@H](N(Cc2ccc(-c3ccno3)cc2)S(=O)(=O)c2ccc(Cl)cc2)C1 [Example 191, 4-Chloro-N-((R)-5,5-dimethyl-2-oxo-azepan-3-yl)-N-(4-isoxazol-5-yl-benzyl)-benzenesulfonamide]",60,
"COc1ccc(CN([C@@H]2CC(C)(C)CCNC2=O)S(=O)(=O)c2ccc(Cl)cc2)c(F)c1 [Example 192, 4-Chloro-N-((R)-5,5-dimethyl-2-oxo-azepan-3-yl)-N-(2-fluoro-4-methoxy-benzyl)-benzenesulfonamide]",40,
"CC1(C)CCNC(=O)[C@H](N(Cc2ccc(CO)cc2F)S(=O)(=O)c2ccc(Cl)cc2)C1 [Example 193, 4-Chloro-N-((R)-5,5-dimethyl-2-oxo-azepan-3-yl)-N-(2-fluoro-4-hydroxymethyl-benzyl)-benzenesulfonamide]",20,
"O=C(O)CCc1ccc(CN(C2CC(C(F)(F)F)CCNC2=O)S(=O)(=O)c2ccc(Cl)cc2)cc1 (stereo not drawn) [Example 194, 3-(4-{[(4-Chloro-benzenesulfonyl)-(2-oxo-5-trifluoromethyl-azepan-3-yl)-amino]-methyl}-phenyl)-propionic acid]",130,
"O=C(O)c1ccc(CN(C2CC(C(F)(F)F)CCNC2=O)S(=O)(=O)c2ccc(Cl)cc2)cc1 (stereo not drawn) [Example 195, 4-{[(4-Chloro-benzenesulfonyl)-(2-oxo-5-trifluoromethyl-azepan-3-yl)-amino]-methyl}-benzoic acid]",30,

# Second part, the compound after the results:
IC50 (table head prints none) [nM],IC50 [nM],Compound
190,,"CN(C)NC(=O)c1ccc(CN(C2CC(C(F)(F)F)CCNC2=O)S(=O)(=O)c2ccc(Cl)cc2)cc1 (stereo not drawn) [Example 196, 4-Chloro-N-[4-(N′,N′-dimethyl-hydrazinocarbonyl)-benzyl]-N-(2-oxo-5-trifluoromethyl-azepan-3-yl)-benzenesulfonamide]"
20,,"COC(=O)c1ccc(CN(C2CC(C(F)(F)F)CCNC2=O)S(=O)(=O)c2ccc(Cl)cc2)c(F)c1 (stereo not drawn) [Example 197, 4-{[(4-Chloro-benzenesulfonyl)-(2-oxo-5-trifluoromethyl-azepan-3-yl)-amino]-methyl}-3-fluoro-benzoic acid methyl ester]"
,290,"COc1ccc(CN(C2CC(C(F)(F)F)CCNC2=O)S(=O)(=O)c2ccc(Cl)cc2)c(F)c1 (stereo not drawn) [Example 198, 4-Chloro-N-(2-fluoro-4-methoxy-benzyl)-N-(2-oxo-5-trifluoromethyl-azepan-3-yl)-benzenesulfonamide]"
,20,"O=C(O)c1ccc(CN(C2CC(C(F)(F)F)CCNC2=O)S(=O)(=O)c2ccc(Cl)cc2)c(F)c1 (stereo not drawn) [Example 199, 4-{[(4-Chloro-benzenesulfonyl)-(2-oxo-5-trifluoromethyl-azepan-3-yl)-amino]-methyl}-3-fluoro-benzoic acid]"
,20,"O=C(O)CCc1ccc(CN([C@@H]2CCCCNC2=O)S(=O)(=O)c2ccc(Cl)cc2)cc1 [Example 201, 3-(4-{[(4-Chloro-benzenesulfonyl)-((R)-2-oxo-azepan-3-yl)-amino]-methyl}-phenyl)-propionic acid]"
,220,"O=C1NCCCC[C@H]1N(Cc1ccc(-c2ccno2)cc1)S(=O)(=O)c1ccc(Cl)cc1 [Example 208, 4-Chloro-N-(4-isoxazol-5-yl-benzyl)-N-((R)-2-oxo-azepan-3-yl)-benzenesulfonamide]"
,50,"COc1ccc(CN([C@@H]2CCCCNC2=O)S(=O)(=O)c2ccc(Cl)cc2)c(F)c1F [Example 211, 4-Chloro-N-(2,3-difluoro-4-methoxy-benzyl)-N-((R)-2-oxo-azepan-3-yl)-benzenesulfonamide]"
,210,"CC(C)(CC(=O)O)c1ccc(CN([C@@H]2CCCCNC2=O)S(=O)(=O)c2ccc(Cl)cc2)cc1 [Example 218, 3-(4-{[(4-Chloro-benzenesulfonyl)-((R)-2-oxo-azepan-3-yl)-amino]-methyl}-phenyl)-3-methyl-butyric acid]"
,230,"CC(C)(Cc1ccc(CN([C@@H]2CCCCNC2=O)S(=O)(=O)c2ccc(Cl)cc2)cc1)C(=O)O [Example 219, 3-(4-{[(4-Chloro-benzenesulfonyl)-((R)-2-oxo-azepan-3-yl)-amino]-methyl}-phenyl)-2,2-dimethyl-propionic acid]"
